# Literature values as cited in patent publication EP4066850A2, “PEPTIDES AND METHODS OF TREATING DYSTROPHY-RELATED DISORDERS USING THE SAME” (Bioincept LLC, priority 2017, dated 2018).
# Conditions: IV infusion together with radiation; xerostomia treatment (Kouvaria et al 2007)
structure (smiles),measurement,value
NCCCNCCSP(=O)(O)O [Amifostine],side effects,serious side effects including fatal skin reaction
